From ChEMBL document CHEMBL1201862, “PubChem BioAssay data set” (2004)
Several values for one entry are separate records, joined by “and”; a condition that tells them apart may be missing. Equal values may be shown once.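 Results reflect a 48-hour exposure of cells in 96-well plates to compound at five concentrations. Here, GI50 denotes the concentration required for 50% inhibition of growth.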 Activity calls are given as the source filed them. Rule as the data show it: active = GI50 up to about 1.1 µM and inactive = higher.

How the values were obtained:
Assay in all cases: NCI anticancer screen, dose series, 48 h
[1] = test system: SNB-19
[2] = test system: SR
[3] = test system: TK-10
[4] = test system: 786-0
[5] = test system: HCC 2998
[6] = test system: ACHN
[7] = test system: MCF7
[8] = test system: A498
[9] = test system: COLO 205
[10] = test system: OVCAR-3
[11] = test system: SW-620
[12] = test system: SK-OV-3
[13] = test system: IGROV-1
[14] = test system: SK-MEL-5
[15] = test system: OVCAR-4
[16] = test system: DU-145
[17] = test system: MDA-MB-231
[18] = test system: CCRF-CEM
[19] = test system: Hs-578T

Measured: GI50

Cn1c(=O)oc2nc(-c3ccccc3)cc(C(F)(F)F)c21
inactive: [1] > 100 µM | [2] 44.6 µM | [3] > 100 µM | [4] > 100 µM | [5] > 100 µM | [6] > 100 µM | [7] 37.8 µM | [8] 39.2 µM | [9] > 100 µM | [10] 32.8 µM | [11] > 100 µM | [12] > 100 µM | [13] > 100 µM | [14] 50.7 µM | [15] 45.4 µM | [16] > 100 µM | [17] > 100 µM

O=C(Nc1ccc(C(F)(F)F)cc1[N+](=O)[O-])C(=O)C(C(=O)c1ccc2ccccc2c1)C1OC(=O)c2ccccc21 (stereo unspecified)
inactive: [1] 8.51 µM | [2] 2.81 µM | [3] 18.5 µM | [4] 5.56 µM | [5] 5.89 µM | [6] 13.3 µM | [8] 4.09 µM | [9] 8.75 µM | [10] 12.8 µM | [11] 4.78 µM | [12] 26.5 µM | [13] 19.5 µM | [14] 6.76 µM | [15] 20.6 µM | [18] 3.7 µM

CC(CO)C1C[C@H](O)[C@@]2(C)CC(=O)C=C(CO)[C@@H]2C1 (stereo partly specified)
inactive: [1] > 100 µM | [3] > 100 µM | [4] > 100 µM | [5] > 100 µM | [6] > 100 µM | [7] > 100 µM | [8] > 100 µM | [9] > 100 µM | [10] > 100 µM | [11] > 100 µM | [12] > 100 µM | [13] > 100 µM | [14] > 100 µM | [15] > 100 µM | [16] > 100 µM | [17] > 100 µM

Cc1c(O)c(OC2OC(CO)C(O)C(O)C2O)cc2c1CC[C@@H]1C2(C)C(=O)C[C@]2(C)[C@@H]([C@@](C)(O)C(=O)CCC(C)(C)O)[C@H](O)C[C@@]12C (stereo partly specified)
inactive: [1] > 100 µM | [2] > 100 µM | [3] > 100 µM | [4] > 100 µM | [5] > 100 µM | [6] > 100 µM | [7] > 100 µM | [8] > 100 µM | [9] > 100 µM | [10] > 100 µM | [11] > 100 µM | [12] > 100 µM | [13] > 100 µM | [14] > 100 µM | [15] > 100 µM | [18] > 100 µM | [16] > 100 µM | [17] > 100 µM

COc1ccc(S(=O)(=O)N(CC(=O)O)c2ccccc2)cc1
inactive: [1] > 100 µM | [3] > 100 µM | [4] > 100 µM | [5] > 100 µM | [6] > 100 µM | [8] > 100 µM | [9] > 100 µM | [10] > 100 µM | [11] > 100 µM | [12] > 100 µM | [13] > 100 µM | [14] > 100 µM | [15] > 100 µM | [18] > 100 µM

CCN(CC)CCNC(=O)c1ccccc1NC(=O)C(=O)Nc1ccccc1C(=O)NCCN(CC)CC
inactive: [1] > 100 µM | [2] 21.8 µM | [3] > 100 µM | [4] 20.6 µM | [5] 32.5 µM | [6] 92.3 µM | [8] > 100 µM | [9] 14.1 µM | [10] 62.7 µM | [11] 18.5 µM | [12] > 100 µM | [13] > 100 µM | [14] 18.8 µM | [15] 64.1 µM | [18] 30.3 µM

CCCCN(CC)C(=O)C(=O)C1C(=O)Nc2ccccc2[S+]1[O-] (stereo unspecified)
inactive: [1] > 100 µM | [3] > 100 µM | [4] > 100 µM | [5] > 100 µM | [6] > 100 µM | [8] > 100 µM | [9] > 100 µM | [10] > 100 µM | [11] > 100 µM | [12] > 100 µM | [13] > 100 µM | [14] > 100 µM | [15] > 100 µM | [18] > 100 µM

COC(=O)c1ccccc1/C=C1\Cc2ccc(C)c(C)c2C1=O
inactive: [1] 44.5 µM | [2] > 100 µM | [3] > 100 µM | [4] 51.4 µM | [5] > 100 µM | [6] > 100 µM | [7] > 100 µM | [8] > 100 µM | [9] > 100 µM | [10] > 100 µM | [19] 92.9 µM | [11] > 100 µM | [13] > 100 µM | [14] > 100 µM | [15] > 100 µM | [18] > 100 µM | [16] > 100 µM

CC(=O)OCC1OC(n2c(-c3ccccc3)c(C(C)=O)c(-c3cccc4ccccc34)c(C#N)c2=S)C(OC(C)=O)C(OC(C)=O)C1OC(C)=O (stereo unspecified)
inactive: [1] > 100 µM | [2] > 100 µM | [3] > 100 µM | [4] > 100 µM | [5] > 100 µM | [6] > 100 µM | [7] > 100 µM | [8] > 100 µM | [9] > 100 µM | [10] > 100 µM | [11] > 100 µM | [12] > 100 µM | [13] > 100 µM | [14] > 100 µM | [15] 28.7 µM and 17.9 µM | [18] > 100 µM | [16] > 100 µM | [17] > 100 µM and 54.1 µM

COc1ccc(-n2c(=O)c3nc[nH]c3n(-c3ccc(OC)cc3)c2=S)cc1
inactive: [2] > 100 µM | [3] > 100 µM | [4] > 100 µM | [5] > 100 µM | [6] > 100 µM | [7] > 100 µM | [8] > 100 µM | [9] > 100 µM | [10] > 100 µM | [11] > 100 µM | [12] > 100 µM | [13] > 100 µM | [14] > 100 µM | [15] > 100 µM | [18] > 100 µM | [16] > 100 µM | [17] > 100 µM

O=C1c2ccccc2C(=O)N1NC1=NCCN1
inactive: [1] > 100 µM | [2] > 100 µM | [3] > 100 µM | [4] > 100 µM | [5] > 100 µM | [6] > 100 µM | [7] > 100 µM | [8] > 100 µM | [9] > 100 µM | [10] > 100 µM | [11] > 100 µM | [12] > 100 µM | [13] > 100 µM | [14] > 100 µM | [15] > 100 µM | [18] > 100 µM | [16] > 100 µM | [17] > 100 µM

Cc1ccccc1C(=O)Oc1ccc(O)cc1
inactive: [1] > 100 µM | [3] > 100 µM | [4] > 100 µM | [5] > 100 µM | [6] > 100 µM | [8] > 100 µM | [9] > 100 µM | [10] > 100 µM | [11] > 100 µM | [12] > 100 µM | [13] > 100 µM | [14] > 100 µM | [15] > 100 µM | [18] > 100 µM

O=C1C2C3CC4C5C3C1C5C1(SCCS1)C42 (stereo unspecified)
inactive: [1] > 100 µM | [2] > 100 µM | [3] > 100 µM | [4] > 100 µM | [5] > 100 µM | [6] > 100 µM | [8] > 100 µM | [9] > 100 µM | [11] > 100 µM | [12] > 100 µM | [13] > 100 µM | [14] > 100 µM | [15] > 100 µM | [18] > 100 µM

CCOC(=O)C(NC(=O)C(CCCCNP(=O)(OCC)OCC)NC(=O)C(C)NC(C)=O)C(C)C (stereo unspecified)
inactive: [1] > 100 µM | [2] > 100 µM | [3] > 100 µM | [4] > 100 µM | [5] > 100 µM | [6] > 100 µM | [7] > 100 µM | [8] 80.7 µM | [9] > 100 µM | [10] > 100 µM | [11] > 100 µM | [13] > 100 µM | [14] > 100 µM | [15] > 100 µM | [18] > 100 µM | [16] > 100 µM | [17] > 100 µM

FC(F)(F)c1ccc(/C=N/C23CC4CC(CC(C4)C2)C3)cc1
inactive: [1] > 100 µM | [2] > 100 µM | [3] > 100 µM | [4] > 100 µM | [5] > 100 µM | [6] > 100 µM | [8] > 100 µM | [9] > 100 µM | [10] > 100 µM | [11] > 100 µM | [12] > 100 µM | [13] > 100 µM | [14] > 100 µM | [15] > 100 µM | [18] > 100 µM

COc1cc(COC(=O)N(CC(=O)O)c2ccccc2)c([N+](=O)[O-])cc1OC
inactive: [1] > 100 µM | [2] > 100 µM | [3] > 100 µM | [4] > 100 µM | [5] > 100 µM | [6] > 100 µM | [7] > 100 µM | [8] 62.7 µM | [9] > 100 µM | [10] > 100 µM | [19] > 100 µM | [11] > 100 µM | [12] > 100 µM | [13] > 100 µM | [14] > 100 µM | [18] > 100 µM | [16] > 100 µM
